Laboratory results published in patent US20250320215A1, “SALTS OF N-[4-(4-[[2-(DIMETHYLAMINO)ETHYL]AMINO]-3-METHYL-1H-PYRAZOLO[3,4-D]PYRIMIDIN-6-YL)-2-FLUOROPHENYL]-2,5-DIFLUOROBENZENESULFONAMIDE AND CRYSTALLINE FORMS THEREOF” (THRYV THERAPEUTICS INC, priority 2022, published 2025).

Assay: Water activity study (competition of forms, XRPD)
Format: physicochemical
Conditions: room temperature
Description: Water activity study was performed using Compound 3 Form B (anhydrate) as the input material in EtOH/Water with different water content at RT. About 5 mg of Compound 3, Form B was used to prepare saturated solutions and the solutions were filtered by syringe at RT. 5 mg of Compound 3, Form D were added in the 1 mL of filtrate, and the suspension was slurried at RT for 3 and 7 days. The solids collected after filtration were analyzed by XRPD.
Protocol: excess amount of Compound 4 Form B was used to prepare saturated solutions. 6-8 mg each of Compound 4 Form B and Form D were added in the solutions. The suspension was slurried at room temperature for the corresponding times. Residual solids were collected by filtration with syringe filter, and characterized by XRPD.

- water activity (aw) at which the form is stable / the most stable form: ≤ 0.08
SMILES: Cc1n[nH]c2nc(-c3ccc(NS(=O)(=O)c4cc(F)ccc4F)c(F)c3)nc(NCCN(C)C)c12 [Compound 4 Form B]
